Measured values: the supplement of paper PMC11061612

Columns and labels:
Experiment in all cases: combination Emax (second highest fraction inhibited in the dose matrix, 72 h); higher = more inhibition; extreme values may be limits of the assay
HMV-II (Melanoma) = test system: HMV-II (Melanoma)
Procedure, shortened: (§1)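 Cell lines grown in DMEM/F12 or RPMI with 10% FBS were plated in 1536-well plates and held 24 hours at 37°C, 5% CO2 before 72 hours of exposure to two-drug dose matrices, with DMSO typically at 0.2%. CellTiter-Glo 2.0 luminescence gave viability, which was converted to inhibition. Vehicle wells were set to 0 and blank wells to 1. Combination Emax is the second-highest inhibition in the matrix, and Bliss excess is the observed combination effect minus the expected EA + EB − EA·EB, where EA and EB are the single-agent effects.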

[1] = test system: CAPAN-1 (Pancreatic Carcinoma)
Procedure, shortened: as §1

[2] = test system: KYSE-410 (Esophageal Squamous Cell Carcinoma)
Procedure, shortened: as §1

[3] = test system: OVCAR-8 (Ovarian Carcinoma)
Procedure, shortened: as §1

[4] = test system: HDLM-2 (Hodgkin's Lymphoma)
Procedure, shortened: as §1

[5] = test system: Hs-633T (Other Solid Carcinomas)
Procedure, shortened: as §1

[6] = test system: SW626 (Colorectal Carcinoma)
Procedure, shortened: as §1

NCI-H28 (Mesothelioma) = test system: NCI-H28 (Mesothelioma)
Procedure, shortened: as §1

[7] = test system: MHH-PREB-1 (B-Cell Non-Hodgkin's Lymphoma)
Procedure, shortened: as §1

[8] = test system: KARPAS-231 (B-Cell Non-Hodgkin's Lymphoma)
Procedure, shortened: as §1

[9] = test system: TE-4 (Esophageal Squamous Cell Carcinoma)
Procedure, shortened: as §1

Mewo (Melanoma) = test system: Mewo (Melanoma)
Procedure, shortened: as §1

[10] = test system: LB771-HNC (Head and Neck Carcinoma)
Procedure, shortened: as §1

[11] = test system: LU-139 (Small Cell Lung Carcinoma)
Procedure, shortened: as §1

[12] = test system: K5 (Thyroid Gland Carcinoma)
Procedure, shortened: as §1

[13] = test system: SW1116 (Colorectal Carcinoma)
Procedure, shortened: as §1

[14] = test system: HO-1-u-1 (Oral Cavity Carcinoma)
Procedure, shortened: as §1

[15] = test system: OC-314 (Ovarian Carcinoma)
Procedure, shortened: as §1

[16] = test system: MDA-MB-468 (Breast Carcinoma)
Procedure, shortened: as §1

| SMILES | combination Emax (HMV-II (Melanoma)) | combination Emax [1] | combination Emax [2] | combination Emax [3] | combination Emax [4] | combination Emax [5] | combination Emax [6] | combination Emax (NCI-H28 (Mesothelioma)) | combination Emax [7] | combination Emax [8] | combination Emax [9] | combination Emax (Mewo (Melanoma)) | combination Emax [10] | combination Emax [11] | combination Emax [12] | combination Emax [13] | combination Emax [14] | combination Emax [15] | combination Emax [16] |
| --- | --- | --- | --- | --- | --- | --- | --- | --- | --- | --- | --- | --- | --- | --- | --- | --- | --- | --- | --- |
| COc1nnc2ccc(N3CCC(c4ccc(OCCN5CCN(C)C(=O)[C@H]5C)cc4)CC3)nn12 [AZD5153] + Cn1cnc2c(F)c(Nc3ccc(Br)cc3Cl)c(C(=O)NOCCO)cc21 [Selumetinib] (first compound max 1 µM, 7x7, partner max 10 µM) | 0.927 | 0.664 | 0.345 | 0.759 | 0.393 | 0.748 | 0.881 | 0.502 | 0.459 | 0 | 0.871 | 0.663 | 0.475 | 0.912 | 0.845 | 0.699 | 0.558 | 0.795 | – |
| C[C@@H](c1ccc2nccn2c1)n1nnc2ncc(-c3cnn(C)c3)nc21 [Savolitinib] + CC1(C)CCC(CN2CCN(c3ccc(C(=O)NS(=O)(=O)c4ccc(NCC5CCOCC5)c([N+](=O)[O-])c4)c(Oc4cnc5[nH]ccc5c4)c3)CC2)=C(c2ccc(Cl)cc2)C1 [Venetoclax] (first compound max 1 µM, 7x7, partner max 1 µM) | 0.12 | 0.181 | 0.124 | 0.0706 | 0.28 | 0.16 | 0.129 | 0.181 | 0.0731 | 0.866 | 0.145 | 0.194 | 0.115 | 0.281 | 0.0879 | 0.145 | 0.0993 | 0.254 | – |
| COc1nnc2ccc(N3CCC(c4ccc(OCCN5CCN(C)C(=O)[C@H]5C)cc4)CC3)nn12 [AZD5153] + CCN(CCO)CCCOc1ccc2c(Nc3cc(CC(=O)Nc4cccc(F)c4)[nH]n3)ncnc2c1 [AZD2811] (first compound max 1 µM, 7x7, partner max 1 µM) | 0.588 | 0.353 | 0.313 | 0.804 | 0.434 | 0.746 | 0.735 | 0.518 | 0.514 | 0.514 | 0.467 | 0.593 | 0.519 | 0.903 | 0.714 | 0.397 | 0.578 | 0.884 | – |
| C=CCn1c(=O)c2cnc(Nc3ccc(N4CCN(C)CC4)cc3)nc2n1-c1cccc(C(C)(C)O)n1 [AZD1775] + CCc1c2c(nc3ccc(O)cc13)-c1cc3c(c(=O)n1C2)COC(=O)[C@]3(O)CC [SN-38] (first compound max 1 µM, partner max 0.3 µM) | 0.634 | 0.799 | – | – | 0.778 | 0.868 | – | 0.551 | – | – | – | 0.676 | – | 0.849 | 0.594 | 0.43 | 0.869 | 0.996 | 0.828 |
| COc1nnc2ccc(N3CCC(c4ccc(OCCN5CCN(C)C(=O)[C@H]5C)cc4)CC3)nn12 [AZD5153] + Cc1c2c(nn1C)CSCc1cc(n(C)n1)CSc1cc(c3ccccc3c1)OCCCc1c(C(=O)O)n(C)c3c-2c(Cl)ccc13 [AZD5991] (first compound max 1 µM, 7x7, partner max 1 µM) | 0.76 | 0.417 | 0.348 | 0.905 | 0.987 | 0.631 | 0.704 | 0.465 | 0.461 | 0.941 | 0.847 | 0.719 | 0.915 | 0.91 | 0.678 | 0.414 | 0.561 | 0.842 | – |
| Cn1cnc2c(F)c(Nc3ccc(Br)cc3Cl)c(C(=O)NOCCO)cc21 [Selumetinib] + CCN(CCO)CCCOc1ccc2c(Nc3cc(CC(=O)Nc4cccc(F)c4)[nH]n3)ncnc2c1 [AZD2811] (first compound max 10 µM, 7x7, partner max 1 µM) | 0.717 | 0.426 | 0.256 | 0.246 | 0.151 | 0.486 | 0.624 | 0.352 | 0.134 | 0.609 | 0.422 | 0.444 | 0.152 | 0.247 | 0.599 | 0.534 | 0.328 | 0.425 | – |
| COc1nnc2ccc(N3CCC(c4ccc(OCCN5CCN(C)C(=O)[C@H]5C)cc4)CC3)nn12 [AZD5153] + C[C@@H]1COCCN1C2=NC(=NC(=C2)C3(CC3)[S@](=N)(=O)C)C4=C5C=CNC5=NC=C4 [AZD6738] (first compound max 1 µM, 7x7, partner max 10 µM) | 0.712 | 0.54 | 0.484 | 0.924 | 0.525 | 0.912 | 0.798 | 0.659 | 0.893 | 0.752 | 0.898 | 0.604 | 0.739 | 0.947 | 0.788 | 0.432 | 0.89 | 0.981 | – |
| Cn1cnc2c(F)c(Nc3ccc(Br)cc3Cl)c(C(=O)NOCCO)cc21 [Selumetinib] + C=CCn1c(=O)c2cnc(Nc3ccc(N4CCN(C)CC4)cc3)nc2n1-c1cccc(C(C)(C)O)n1 [AZD1775] (first compound max 10 µM, partner max 1 µM) | 0.812 | 0.59 | 0.431 | 0.872 | 0.71 | 0.628 | 0.724 | 0.433 | 0.777 | 0.982 | 0.642 | 0.47 | 0.452 | 0.332 | 0.596 | 0.444 | 0.456 | 0.452 | – |
| Cn1cnc2c(F)c(Nc3ccc(Br)cc3Cl)c(C(=O)NOCCO)cc21 [Selumetinib] + C[C@@H]1COCCN1C2=NC(=NC(=C2)C3(CC3)[S@](=N)(=O)C)C4=C5C=CNC5=NC=C4 [AZD6738] (first compound max 10 µM, 7x7, partner max 10 µM) | 0.735 | 0.585 | 0.302 | 0.739 | 0.243 | 0.748 | 0.681 | 0.471 | 0.675 | 0.639 | 0.791 | 0.466 | 0.503 | 0.053 | 0.689 | 0.476 | 0.718 | 0.753 | – |
| Cc1nc(-c2cn3c(n2)-c2ccc(-c4cnn(C(C)(C)C(N)=O)c4)cc2OCC3)n(C(C)C)n1 [Taselisib] + O=C(Nc1ccc2[nH]nc(-c3ccncc3)c2c1)[C@@H]1CCN(CC(=O)N2CCN(c3ccc(-c4ncccn4)cc3)CC2)C1 [SCH772984] (first compound max 10 µM, 7x7, partner max 5 µM) | 0.867 | 0.77 | – | – | 0.345 | 0.834 | – | 0.589 | – | – | – | 0.777 | – | 0.154 | 0.954 | 0.521 | 0.933 | 0.747 | 0.747 |
| Cn1cnc2c(F)c(Nc3ccc(Br)cc3Cl)c(C(=O)NOCCO)cc21 [Selumetinib] + CC(C)n1c(=O)n(C)c2cnc3cc(F)c(-c4ccc(OCCCN5CCCCC5)nc4)cc3c21 [AZD1390] (first compound max 10 µM, 7x7, partner max 0.3 µM) | 0.719 | 0.376 | 0.163 | 0.132 | 0.138 | 0.433 | 0.562 | 0.262 | 0.108 | 0.225 | 0.226 | 0.403 | 0.136 | 0.0318 | 0.51 | 0.502 | 0.188 | 0.211 | – |
| COc1nnc2ccc(N3CCC(c4ccc(OCCN5CCN(C)C(=O)[C@H]5C)cc4)CC3)nn12 [AZD5153] + C=CCn1c(=O)c2cnc(Nc3ccc(N4CCN(C)CC4)cc3)nc2n1-c1cccc(C(C)(C)O)n1 [AZD1775] (first compound max 1 µM, partner max 1 µM) | 0.709 | 0.549 | 0.491 | 0.863 | 0.732 | 0.798 | 0.75 | 0.508 | 0.825 | 0.978 | 0.892 | 0.645 | 0.627 | 0.89 | 0.719 | 0.397 | 0.735 | 0.912 | – |
| CS(=O)(=O)CCNCc1ccc(-c2ccc3ncnc(Nc4ccc(OCc5cccc(F)c5)c(Cl)c4)c3c2)o1 [Lapatinib] + Cn1cnc2c(F)c(Nc3ccc(Br)cc3Cl)c(C(=O)NOCCO)cc21 [Selumetinib] (first compound max 10 µM, 7x7, partner max 10 µM) | 0.768 | 0.615 | – | – | 0.372 | 0.478 | – | 0.412 | – | – | – | 0.503 | – | 0.161 | 0.597 | 0.73 | 0.789 | 0.691 | 0.882 |
| CS(=O)(=O)CCNCc1ccc(-c2ccc3ncnc(Nc4ccc(OCc5cccc(F)c5)c(Cl)c4)c3c2)o1 [Lapatinib] + NC1(c2ccc(-c3nc4ccn5c(=O)[nH]nc5c4cc3-c3ccccc3)cc2)CCC1 [MK-2206] (first compound max 10 µM, 7x7, partner max 10 µM) | 0.904 | 0.331 | – | – | 0.625 | 0.905 | – | 0.607 | – | – | – | 0.521 | – | 0.672 | 0.95 | 0.627 | 0.943 | 0.873 | 0.959 |
